Results published in patent US5266566A, “Method of treating fungal infections using sterodial ester compounds” (British Technology Group Limited, priority 1989, dated 1993).
In brackets after ≈: the same amount, converted by molar mass. Entries after “also recorded” stand apart in the source; their conditions may differ. Like-named read-outs stand apart in the source and are kept apart here.

Legend:
Assay in all cases: Disc diffusion antifungal test (zones of inhibition, approximate MIC)
Format in all cases: cell-based
[1] = system: Trichophyton mentagrophytes NCPF 224
Description: (§1) Candida albicans NCYC 597; Trichophyton mentagrophytes NCPF 224 and Microsporum audonii NCPF 638 were used throughout as test organisms. These are open deposits at the National Collection of Yeast Cultures, Norwich UK and the National Collection of Pathogenic Fungi of the Commonwealth Mycological Institute, Kew UK.
(§2) All organisms were maintained in a nutrient broth containing (gl^-1): Lab Lemco (Oxoid), 5; Peptone (Oxoid), 5; NaCl, 10. Cultures for testing antimicrobial activity were grown in this medium for 18 h prior to use. Solidified media were prepared by the addition of Agar (Oxoid No. 3) 1.5% w/v.
(§3) Antifungal activity was estimated using solutions of the compound (as the free acid) in dimethyl sulphoxide. A range of concentrations was used for each compound to permit calculation of an approximate MIC. 13 mm discs (Whatman) were soaked in a solution of the appropriate dilution, either allowed to dry, or placed directly onto the surface of nutrient agar plates seeded with the required test organism.
(§4) After 24 h incubation the diameters of zones of inhibition were measured. After a further 24 h incubation, the plates were re-examined and zones re-measured. The compounds were tested in three groups.

[2] = system: Microsporum audonii NCPF 638; conditions: for MIC: Microsporum
Description: as §1, §2, §3, §4

[3] = system: Candida albicans NCYC 597; conditions: for MIC: Candida albicans; for Activity against Candida albicans (in words): result in words
Description: as §1, §2, §3, §4

[4] = NCPF224, Table 3, Group 3 tests, read-out: MIC T. ment.
[5] = NCPF638, Table 3, Group 3 tests, read-out: MIC M. aud.
[6] = NCPF224, Table 2, Group 2 tests, read-out: MIC Trichophyton mentagrophytes
[7] = NCPF638, Table 2, Group 2 tests, read-out: MIC Microsporum audonii
[8] = NCPF224, Table 1, Group 1 tests, read-out: MIC T. ment.
[9] = NCPF638, Table 1, Group 1 tests, read-out: MIC M. aud.
[10] = NCYC597, read-out: MIC C. albicans, Table 1, Group 1 tests
[11] = NCPF224, read-out: MIC T. ment., Table 1, Group 1 tests
[12] = NCPF224, read-out: MIC Trichophyton mentagrophytes, Table 2, Group 2 tests
[13] = NCPF638, read-out: MIC M. aud., Table 1, Group 1 tests
[14] = NCPF638, read-out: MIC Microsporum audonii, Table 2, Group 2 tests
[15] = NCYC597, read-out: MIC Candida albicans, Table 2, Group 2 tests
[16] = NCYC597, read-out: MIC C. albicans, Table 3, Group 3 tests
[17] = NCYC597, Table 1, Group 1 tests, read-out: MIC C. albicans

With CCCCOC(=O)CC[C@@H](C)[C@H]1CC[C@H]2[C@@H]3[C@H](O)C[C@@H]4C[C@H](O)CC[C@]4(C)[C@H]3CC[C@]12C [Butyl chenodeoxycholate, n-butyl chenodeoxycholate] the MIC [1, 4] was 1500 µg/mL (≈ 3340 µM), the MIC [2, 5] was 1000 µg/mL (≈ 2230 µM) and the “MIC C. albicans” value ([3]; Table 3, Group 3 tests) was “no effect”.
CCCCOC(=O)CC[C@@H](C)[C@H]1CC[C@H]2[C@@H]3CC[C@@H]4C[C@H](O)CC[C@]4(C)[C@H]3C[C@H](O)[C@]12C [Butyl deoxycholate, n-butyl deoxycholate] was tested, and the MIC [1, 6] was 850 µg/mL (≈ 1890 µM) and the MIC [2, 7] was 875 µg/mL (≈ 1950 µM).
Compound CCCCOC(=O)CC[C@@H](C)[C@H]1CC[C@H]2[C@@H]3CC[C@@H]4C[C@H](O)CC[C@]4(C)[C@H]3CC[C@]12C [Butyl lithocholate, n-butyl lithocholate] has an MIC [1, 6] of 1100 µg/mL (≈ 2540 µM) and an MIC [2, 7] of 900 µg/mL (≈ 2080 µM).
Compound C[C@H](CCC(=O)O)[C@H]1CC[C@H]2[C@@H]3[C@H](O)C[C@@H]4C[C@H](O)CC[C@]4(C)[C@H]3CC[C@]12C [Chenodeoxycholic acid, reference compound] has an MIC [1, 8] of 1300 µg/mL (≈ 3310 µM), an MIC [2, 9] of 1000 µg/mL (≈ 2550 µM) and an MIC [3, 10] of 140 µg/mL (≈ 357 µM).
C[C@H](CCC(=O)O)[C@H]1CC[C@H]2[C@@H]3[C@H](O)C[C@@H]4C[C@H](O)CC[C@]4(C)[C@H]3C[C@H](O)[C@]12C [Cholic acid, reference compound] gave an MIC [1, 11] of 10000 µg/mL (≈ 24500 µM), an MIC [1, 12] of roughly 10000 µg/mL (≈ 24500 µM) and an MIC [2, 13] of 5500 µg/mL (≈ 13500 µM). It also gave an MIC [2, 14] of roughly 5000 µg/mL (≈ 12200 µM), an MIC [3, 10] of 390 µg/mL (≈ 955 µM) and an MIC [3, 15] of 405 µg/mL (≈ 991 µM).
Work on C[C@H](CCC(=O)O)[C@H]1CC[C@H]2[C@@H]3CC[C@@H]4C[C@H](O)CC[C@]4(C)[C@H]3C[C@H](O)[C@]12C [Deoxycholic acid, reference compound] yielded an MIC [1, 8] of 300 µg/mL (≈ 764 µM), an MIC [1, 6] of 310 µg/mL (≈ 790 µM) and an MIC [1, 4] of 250 µg/mL (≈ 637 µM). The MIC [2, 9] was 30 µg/mL (≈ 76.4 µM), the MIC [2, 7] was 35 µg/mL (≈ 89.2 µM) and the MIC [2, 5] was 40 µg/mL (≈ 102 µM). The “Activity against Microsporum audonii (in words)” value ([2]; result in words) was “very highly effective; also recorded: effective”, the MIC [3, 10] was 2100 µg/mL (≈ 5350 µM) and the MIC [3, 16] was 1800 µg/mL (≈ 4590 µM). For the same compound, the MIC [3, 15] was 2000 µg/mL (≈ 5090 µM) and the “Activity against Candida albicans (in words)” value [3] was “poorer action against Candida”.
C[C@H](CCC(=O)O)[C@H]1CC[C@H]2[C@@H]3CC[C@@H]4C[C@H](O)CC[C@]4(C)[C@H]3CC[C@]12C [Lithocholic acid, reference compound] showed an MIC [2, 9] of 100 µg/mL (≈ 266 µM) and an MIC [3, 17] of 410 µg/mL (≈ 1090 µM).
Compound COC(=O)CC[C@@H](C)[C@H]1CC[C@H]2[C@@H]3[C@H](O)C[C@@H]4C[C@H](O)CC[C@]4(C)[C@H]3CC[C@]12C [Methyl chenodeoxycholate, methyl chenodeoxycholate] has an MIC [1, 11] of 460 µg/mL (≈ 1130 µM), an MIC ([1]; NCPF224, read-out: MIC T. ment., Table 3, Group 3 tests) of 1000 µg/mL (≈ 2460 µM) and an MIC [2, 13] of 30 µg/mL (≈ 73.8 µM). It also gave an MIC ([2]; NCPF638, read-out: MIC M. aud., Table 3, Group 3 tests) of 800 µg/mL (≈ 1970 µM), an MIC [3, 10] of 20 µg/mL (≈ 49.2 µM) and an MIC [3, 16] of 1000 µg/mL (≈ 2460 µM).
COC(=O)CC[C@@H](C)[C@H]1CC[C@H]2[C@@H]3[C@H](O)C[C@@H]4C[C@H](O)CC[C@]4(C)[C@H]3C[C@H](O)[C@]12C [Methyl cholate, methyl cholate] gave an MIC [1, 8] of 80 µg/mL (≈ 189 µM), an MIC [2, 9] of 50 µg/mL (≈ 118 µM) and an MIC [3, 17] of 3500 µg/mL (≈ 8280 µM).
In the case of COC(=O)CC[C@@H](C)[C@H]1CC[C@H]2[C@@H]3CC[C@@H]4C[C@H](O)CC[C@]4(C)[C@H]3C[C@H](O)[C@]12C [Methyl deoxycholate, methyl deoxycholate], the MIC [1, 8] is reported as 900 µg/mL (≈ 2210 µM), the MIC [1, 6] is reported as 250 µg/mL (≈ 615 µM) and the MIC [1, 4] is reported as 500 µg/mL (≈ 1230 µM). For the same compound, the MIC [2, 9] was 520 µg/mL (≈ 1280 µM), the MIC [2, 7] was 200 µg/mL (≈ 492 µM) and the MIC [2, 5] was 450 µg/mL (≈ 1110 µM). It also gave an MIC [3, 17] of 20 µg/mL (≈ 49.2 µM), an MIC ([3]; NCYC597, Table 2, Group 2 tests, read-out: MIC Candida albicans) of 31 µg/mL (≈ 76.2 µM) and an MIC ([3]; NCYC597, Table 3, Group 3 tests, read-out: MIC C. albicans) of 28 µg/mL (≈ 68.9 µM). For the same compound, the “Homogeneity of effect in the zone of inhibition” value ([3]; Group 2 tests, many resistant colonies in the zone) was “not homogeneous” and the “Activity against Candida albicans (in words)” value [3] was “highly effective; also recorded: outstanding”.
For COC(=O)CC[C@@H](C)[C@H]1CC[C@H]2[C@@H]3CC[C@@H]4C[C@H](O)CC[C@]4(C)[C@H]3CC[C@]12C [Methyl lithocholate, methyl lithocholate], the MIC [1, 12] was 1000 µg/mL (≈ 2560 µM) and the MIC [2, 14] was 950 µg/mL (≈ 2430 µM).
